Test results taken from US7649016B2, “Antitumor medicine” (Nihon Starch Co., Ltd., priority 2003, dated 2010).

How the values were obtained:
[1] = system: integrin (THP-1 cell adhesion); test: Number of adhered cells after phorbol ester (PMA) stimulation, function of integrin; type: cell-based, human; settings: THP-1, 12.3 mM, one hour
Procedure: A 1,5-D-anhydrofructose solution (prepared by dissolving 1,5-D-anhydrofructose in DMSO) was added to the THP-1 cell culture medium, and the resulting medium was then stimulated by phorbol ester (PMA; phorbol myristate acetate). After the medium was cultured at 37° C. and a CO2 concentration of 5% for one hour, adhered cells were stained with a Giemsa staining method.
It is known that when leukemia cell lines are stimulated by phorbol ester (PMA), activation of adhesion molecule integrin is observed, and as a result, production of active oxygen, enhancement of cell adhesion and cell infiltration are induced as cell phenomena. Thus, THP-1 cell lines were cultured in the presence of 1,5-D-anhydrofructose, and the function of integrin was evaluated by use of the number of adherent cells after stimulation of the lines by phorbol ester as an index.

[2] = system: B16 melanoma cells in C57 BL/6 mice; test: Cancerous peritonitis model, survival of mice with B16 melanoma cells in the abdominal cavity; type: in vivo, mouse
Procedure: B16 melanoma cells (5×10^6 cells) were disseminated in the abdominal cavities of C57 BL/6 mice, PBS (phosphate buffer) and an ascopyrone P solution were then administered (dosage: 200 mg/kg) into the abdominal cavities every day from the 15th day, and the survival rates were examined (cancerous peritonitis model). It was confirmed that, in this experimental system, when the B16 melanoma cells were disseminated in the abdominal cavities of the mice in advance, the mice died from the 14th day or later when nothing or PBS was applied. The results of examining the life extending effect of ascopyrone P on terminal cancer models by use of the present experimental system are shown in FIG. 8. […] This indicates the antitumor effect in vivo of ascopyrone P.
As in Example 1, B16 melanoma cells (5×10^6 cells) were disseminated in the abdominal cavities of C57 BL/6 mice, and PBS and 1,5-D-anhydrofructose were administered (dosage: 200 mg/kg) into the abdominal cavities every day from the 2nd day. The average survival days after the tumor cells were disseminated were 19 days for those given 1,5-D-anhydrofructose and 14 days for those given PBS as controls.

B16 melanoma cells = test: Cell growth inhibition, number of living cells by crystal violet staining; type: cell-based, mouse; settings: 0.70 mM final concentration, one week culture
Procedure: After B16 melanoma cells having multiplied on a 6-well plate were fixed by 2% glutaraldehyde, they were stained with 4% crystal violet, and stainable cells were determined to be living cells.
5×10^3 cells/ml of B16 melanoma cells (C57 BL/6 mouse melanoma cells) were disseminated into a 6-well plate. After the cells were attached to the bottom face (24 hours), an ascopyrone P solution (using DMSO as a solvent) was added in equal amounts to achieve a final concentration of 0 to 0.70 mM in the culture solutions. After the cells were cultured at 37° C. and a CO2 concentration of 5% for one week, the number of living cells was counted.

[3] = system: THP-1 (promyelocytic leukemia cells); test: Percentage of dead cells by PI staining/FACS; type: cell-based, human
Procedure: (§1) Adhesion cancer cell lines C57 BL/6 mouse melanoma cell lines (B16 melanoma), human lung adenocarcinoma cell lines (A549), human keratinocyte derived tumor-like cell lines (HaCaT) and human cervical cancer cell lines (Hela) were cultured at 37° C. and a CO2 concentration of 5% in DMEM media having 10% FCS (fetal calf serum) and 2% penicillin/streptomycin added thereto. Floating tumor cells THP-1 (promyelocytic leukemia cell lines) were cultured at 37° C. and a CO2 concentration of 5% in an RPMI 1640 medium containing 10% FCS and 2% penicillin/streptomycin.
(§2) The cell culture media were stimulated by ascopyrone P solutions (prepared by dissolving ascopyrone P in dimethyl sulfoxide (DMSO)) of various concentrations and cultured for a predetermined time. Thereafter, cells were collected in a floating state by use of trypsin. Then, the cells were fixed by 70% ethanol at 4° C. for 30 minutes and then stained with a 50 μg/ml propidium iodine (PI) solution. […]
(§3) In the examination, in addition to the B16 melanoma cells, 4 types of human cancer cell lines (THP-1: promyelocytic leukemia, HeLa: cervical cancer, A549: alveolar cell carcinoma, HaCaT: cutaneous cancer model cells) were examined for the proportion of dead cells induced by stimulation of ascopyrone P. To the cancer cell culture solutions, ascopyrone P was added to 1.4 mM, and the percentages of dead cells after 48 hours were determined.

[4] = system: HeLa (human cervical cancer cells); test: Percentage of dead cells and cell cycle by PI staining/FACS; type: cell-based; settings: 1.4 mM
Procedure: as §1
(§4) The cell culture media were stimulated by ascopyrone P solutions (prepared by dissolving ascopyrone P in dimethyl sulfoxide (DMSO)) of various concentrations and cultured for a predetermined time. Thereafter, cells were collected in a floating state by use of trypsin. Then, the cells were fixed by 70% ethanol at 4° C. for 30 minutes and then stained with a 50 μg/ml propidium iodine (PI) solution. After 30 minutes, DNA histograms were prepared by use of an FACS to examine cell death percentages and cell cycles.
as §3
Therefore, when ascopyrone P is given to a living body as an antitumor medicine, it is expected that it specifically exerts a cell killing effect only on tumor cells without affecting normal cells most of which are conceived in the G0/1 period of the cell cycle.

[5] = system: A549 (human alveolar cell carcinoma); test: Percentage of dead cells by PI staining/FACS; DNA fragmentation; type: cell-based
Procedure: as §1, §2, §3

[6] = system: HaCaT (human keratinocyte derived tumor-like cells); test: Percentage of dead cells by PI staining/FACS; DNA fragmentation; FCS 10% vs FCS 1%; type: cell-based; settings: 1.4 mM
Procedure: as §1, §4, §3
It is known that although HaCaT cells have characteristics of tumor cells in the presence of 10% FCS, they have characteristics close to those of normal cells in the presence of low-concentration FCS (1% or lower). By taking advantage of this characteristic, the influence of ascopyrone P on normal cells was examined.

[7] = system: B16 melanoma (C57 BL/6 mouse melanoma cells); test: Percentage of dead cells by PI staining/FACS; type: cell-based; settings: 1.4 mM, after 48 hours
Procedure: as §1, §2, §3

[8] = system: B16 melanoma cells in C57 BL/6 mice; test: Subcutaneous B16 melanoma tumor volume and metastasis; type: in vivo, mouse; settings: 25 mg/kg subcutaneously into tumor spots every other day, 3rd to 13th day
Procedure: Next, B16 melanoma cells (1×10^5 cells) were subcutaneously disseminated in the backs of C57 BL/6 mice, PBS and ascopyrone P were subcutaneously injected into tumor spots (using a solution of ascopyrone P dissolved in PBS in a dosage of 25 mg/kg) every other day from the 3rd day to the 13th day, and the antitumor effects were evaluated based on the volumes (long diameter×short diameter^2×0.52) of the tumors (FIG. 10). […] In general, it is said in clinical practice that an antitumor medicine with a lower tumor growing rate provides better prognosis.

O=C1CO[C@H](CO)[C@@H](O)[C@@H]1O [1,5-D-anhydrofructose]
cell adhesion by phorbol ester (remaining) [1]: about 25% | average survival days after the tumor cells were disseminated ([2]; 200 mg/kg into the abdominal cavity every day from the 2nd day, PBS controls 14 days): 19 days

O=C1CC(CO)OC=C1O (stereo not drawn) [ascopyrone P, 2-hydroxymethyl-5-hydroxy-2,3-dihydro-4H-pyran-4-one]
number of living cells (control DMSO = 100%) (B16 melanoma cells): ≤ 50% | cell death ([3]; THP-1, 0.35 mM, within 48 hours): induced cell death | Percentage of Dead Cells (%) ([3]; THP-1, 1.4 mM, after 48 hours): 33.3 ± 0.7% | Percentage of Dead Cells (%) ([4]; after 48 hours): 8.3 ± 2.0% | G2/M period cell population ([4]; FCS 10%, 24 hours): significant decrease | S-period cell population ([4]; FCS 10%, 24 hours): significant increase | cell death ([4]; FCS 10%, 48 hours): about 10% | Percentage of Dead Cells (%) ([5]; A549, 1.4 mM, after 48 hours): 48.6 ± 3.8% | apoptosis-specific DNA fragmentation ([5]; A549 cells): the same result was also obtained | apoptosis-specific DNA fragmentation ([6]; 48 hours, agarose gel electrophoresis): apoptosis-specific DNA fragmentation was observed | Percentage of Dead Cells (%) ([6]; after 48 hours): 27.2 ± 3.1% | cell death ([6]; FCS 1% (normal-cell-like)): almost no cell death was observed | cell death ([6]; FCS 10% (tumor-like growth), within 48 hours): about 30% | Percentage of Dead Cells (%) [7]: 31.9 ± 3.6% | proportion of mice with 3 times or longer life time expansion than controls (PBS) ([2]; 200 mg/kg into the abdominal cavity every day from the 15th day): 40% | average survival days ([2]; 200 mg/kg into the abdominal cavity every day from the 15th day, PBS controls 4 days): 8 days | metastasis of tumors at dissection [8]: hardly observed | tumor volume versus PBS ([8]; from the 7th day and later): significantly smaller tumor volume | tumor volume versus PBS ([8]; until the 7th day): no difference
